Measurements: US11285135B2 (AMGEN INC., priority 2016, dated 2022)
Like-named read-outs stand apart in the source and are kept apart here.

Key:
[1] = biological target: GDP-bound protein (aa 1-169), containing both G12C and C118A amino acid substitutions (Homo sapiens, UniProt P01116, C118A/G12C); assay: Coupled Nucleotide Exchange Assay (SOS-mediated nucleotide exchange, AlphaScreen); format: biochemical; settings: 2 hours compound pre-incubation
Procedure, shortened: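 AlphaScreen signal after SOS (aa 564-1049)/GTP-driven exchange (1 h) on GDP-loaded His-[…] G12C/C118A (aa 1-169), following a 2 h compound pre-incubation in HEPES pH 7.4 buffer with 10 mM MgCl2 and 0.01% Triton X-100. IC50s fitted by 4-parameter logistic model.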

[2] = tested on: Phosphorylation of ERK½ in MIA PaCa-2 cells; assay: Phospho-ERK½ MSD Assay in MIA PaCa-2 cells; format: cell-based; settings: 4 hours compound treatment, 10 ng/mL EGF for 10 min, read-out: p-ERK IC50 (MIA PaCa-2)
Procedure, shortened: (§1)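 MIA PaCa-2 or A549 cells (25,000/well, RPMI with 10% FBS) exposed to compound titration for 4 h at 37 °C, then stimulated with 10 ng/mL EGF for 10 min and lysed in RIPA. Phospho-ERK1/2 quantified by MSD whole-cell lysate immunoassay; IC50 from 4-parameter logistic fit.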

[3] = tested on: Phosphorylation of ERK½ in A549 cells; assay: Phospho-ERK½ MSD Assay in A549 cells; format: cell-based; settings: 4 hours compound treatment, 10 ng/mL EGF for 10 min, read-out: p-ERK IC50 (A549)
Procedure, shortened: as §1

[4] = Homo sapiens, MIA PaCa-2, MIA PaCa-2 cells

Sequence of GDP-bound protein (aa 1-169), containing both G12C and C118A amino acid substitutions (P01116 1-169 isoform P01116-2 G12C/C118A): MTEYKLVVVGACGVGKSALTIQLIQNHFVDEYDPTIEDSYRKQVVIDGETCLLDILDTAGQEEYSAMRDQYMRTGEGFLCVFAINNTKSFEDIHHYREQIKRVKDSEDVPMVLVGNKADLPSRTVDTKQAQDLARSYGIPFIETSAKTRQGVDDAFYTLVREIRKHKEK

Row | Compound | Coupled exchange IC50 [1] [µM] | IC50 ([2]; MIA PaCa-2 cells) [µM] | IC50 ([3]; A549 cells) [µM] | IC50 ([3]; Homo sapiens, A549, A549 cells) [µM] | IC50 [2, 4] [µM] | IC50 ([3]; A549 cells, listed as 8-6-7) [µM]
1 | C=CC(=O)N1CCN(c2nc(=O)n(-c3ccccc3C(C)C)c3cc(-c4c(O)cccc4F)c(Cl)cc23)CC1 (single isomer, unassigned) [Example 8-1-2, 6-Chloro-7-(2-fluoro-6-hydroxyphenyl)-1-(2-(2-propanyl)phenyl)-4-(4-(2-propenoyl)-1-piperazinyl)-2(1H)-quinazolinone] | 0.322 | 0.811 | > 100 |  |  | 
2 | C=CC(=O)N1CCN(c2nc(=O)n(-c3ccccc3C(C)C)c3cc(-c4c(O)cccc4F)c(Cl)cc23)CC1 [Example 8-1, 6-Chloro-7-(2-fluoro-6-hydroxyphenyl)-1-(2-(2-propanyl)phenyl)-4-(4-(2-propenoyl)-1-piperazanyl)-2(1H)-quinazolinone] | 0.542 | 0.211 |  | 62.3 |  | 
3 | C=CC(=O)N1CCN(c2snc3c(F)c(-c4cc(O)cc5cnn(C)c45)c(Cl)cc23)CC1 [Example 19-2, 1-(4-(5-chloro-7-fluoro-6-(5-hydroxy-1-methyl-1H-indazol-7-yl)-2,1-benzothiazol-3-yl)-1-piperazinyl)-2-propen-1-one] | 1.62 |  |  | 3.7 | 4.69 | 
4 | C=CC(=O)N1CCN(c2snc3c(F)c(-c4c[nH]c5ccccc45)c(Cl)cc23)CC1 [Example 1-2, 1-(4-(5-chloro-7-fluoro-6-(1H-indol-3-yl)-2,1-benzothiazol-3-yl)-1-piperazinyl)-2-propen-1-one] | 2.38 |  |  | > 100 | 6.08 | 
5 | C=CC(=O)N1CCN(c2snc3c(F)c(-c4cc(O)cc5ccccc45)c(Cl)cc23)C(CCO)C1 (stereo in doubt) [Example 1-11, 1-((3S)-4-(5-chloro-7-fluoro-6-(3-hydroxy-1-naphthalenyl)-2,1-benzothiazol-3-yl)-3-(2-hydroxyethyl)-1-piperazinyl)-2-propen-1-one] | 0.695 |  |  | > 100 | 8.2 | 
6 | C=CC(=O)N1CCN(c2nc(=O)n(-c3ccccc3C(C)C)c3cc(-c4ccccc4Cl)c(Cl)cc23)[C@@H](C)C1 [Example 9-11, 6-chloro-7-(2-chlorophenyl)-4-((2S)-2-methyl-4-(2-propenoyl)-1-piperazinyl)-1-(2-(2-propanyl)phenyl)-2(1H)-quinazolinone] | 0.093 |  |  | 64 | 0.147 | 
7 | C=CC(=O)N1CCN(c2nc(=O)n(-c3ccncc3C3CC3)c3cc(-c4c(O)cccc4F)c(Cl)cc23)CC1 [Example 9-6, 6-chloro-1-(3-cyclopropyl-4-pyridinyl)-7-(2-fluoro-6-hydroxyphenyl)-4-(4-(2-propenoyl)-1-piperazinyl)-2(1H)-quinazolinone] | 0.237 |  |  | > 100 | 3.51 | 
8 | C=CC(=O)N1CCN(c2snc3c(F)c(-c4cc(O)cc5ccccc45)c(Cl)cc23)[C@@H](C)C1 (single isomer, unassigned) [Example 1-19-2] | 5.10 | > 100 | > 100 |  |  | 
9 | C=CC(=O)N1CCN(c2nc(=O)n(-c3cnccc3C3CC3)c3cc(-c4c(O)cccc4F)c(Cl)cc23)CC1 [Example 8-5, 6-chloro-1-(4-cyclopropyl-3-pyridinyl)-7-(2 fluoro-6-hydroxyphenyl)-4-(4-(2-propenoyl)-1-piperazinyl)-2(1H)-quinazolinone] | 0.400 |  |  | > 100 | 2.41 | 
10 | C=CC(=O)N1CCN(c2nnc(C3CC3)c3cc(-c4c(O)cccc4F)c(Cl)cc23)CC1 [Example 12, 1-(4-(7-Chloro-4-cyclopropyl-6-(2-fluoro-6-hydroxyphenyl)-1-phthalazinyl)-1-piperazinyl)-2-propen-1-one] | 3.34 |  |  | > 100 | 25.9 | 
11 | C=CC(=O)N1CCN(c2nc(=O)n(-c3ccccc3C(C)C)c3nc(-c4c(O)cccc4F)c(Cl)cc23)[C@@H](C)C1 (single isomer, unassigned) [Example 8-6-2] | 0.185 | 0.128 |  |  |  | > 100
12 | C=CC(=O)N1CCN(c2nnc(Oc3ccccc3)c3cc(-c4c(O)cccc4F)c(Cl)cc23)CC1 [Example 16, 1-(4-(7-Chloro-6-(2-fluoro-6-hydroxyphenyl)-4-phenoxy-1-phthalazinyl)-1-piperazinyl)-2-propen-1-one] | 2.93 |  |  | 33.3 | 8.62 | 
13 | C=CC(=O)N1CCN(c2snc3c(F)c(-c4cc(O)cc5ccccc45)c(Cl)cc23)[C@@H](C)C1 [Example 1-19, 1-((3S)-4-(5-chloro-7-fluoro-6-(3-hydroxy-1-naphthalenyl)-2,1-benzothiazol-3-yl)-3-methyl-1-piperazinyl)-2-propen-1-one] | 0.297 | 1.33 |  | > 100 |  | 
14 | C=CC(=O)N1CCN(c2nc(=O)n(-c3ccccc3C(C)C)c3cc(-c4c(O)cccc4F)c(Cl)cc23)[C@@H](C)C1 (single isomer, unassigned) [Example 8-3-2] | 0.340 | 0.028 | > 100 |  |  | 
15 | C=CC(=O)N1CCN(c2snc3c(F)c(-c4cc(O)cc5ccccc45)c(Cl)cc23)C(CO)C1 (racemic) [Example 1-18, 1-(4-(5-chloro-7-fluoro-6-(3-hydroxy-1-naphthalenyl)-2,1-benzothiazol-3-yl)-3-(hydroxymethyl)-1-piperazinyl)-2-propen-1-one] | 0.370 |  |  | > 33.3 | 0.559 | 
16 | C=CC(=O)N1CCN(c2snc3c(F)c(-c4cc(O)cc5ccccc45)c(Cl)cc23)[C@@H](C)C1 (single isomer, unassigned) [Example 1-19-1] | 0.115 |  |  | > 100 | 0.368 | 
17 | C=CC(=O)N1CCN(c2snc3c(F)c(-c4cc(O)cc5ccccc45)c(Cl)cc23)[C@H](CC)C1 (racemic) [Example 1-8] | 0.894 |  |  | > 100 | 6.07 | 
18 | C=CC(=O)N1CCN(c2nc(=O)n(-c3ccccc3C(C)C)c3cc(-c4c(C)ccc5[nH]ncc45)c(Cl)cc23)[C@@H](C)C1 (single isomer, unassigned) [Example 11-2-2] | 0.256 | 0.006 | 26.4 |  |  | 
19 | C=CC(=O)N1CCN(c2nc(=O)n(-c3ccncc3C3CC3)c3cc(-c4c(C)ccc5[nH]ncc45)c(Cl)cc23)[C@@H](C)C1 [Example 9-9, 6-chloro-1-(3-cyclopropyl-4-pyridinyl)-7-(5-methyl-1H-indazol-4-yl)-4-((2S)-2-methyl-4-(2-propenoyl)-1-piperazinyl)-2(1H)-quinazolinone] | 0.147 |  |  | 65.6 | 0.136 | 
20 | C=CC(=O)N1CCN(c2snc3nc(-c4c(C)ccc5[nH]ncc45)c(Cl)cc23)C(C)C1 (racemic) [Example 2-6, 1-(4-(5-chloro-6-(5-methyl-1H-indazol-4-yl)[1,2]thiazolo[3,4-b]pyridin-3-yl)-3-methyl-1-piperazinyl)-2-propen-1-one] | 1.59 |  |  | 3.7 | 2.97 | 
21 | C=CC(=O)N1CCN(c2snc3c(F)c(-c4c(O)ccc5ccccc45)c(Cl)cc23)CC1 [Example 1-14, 1-(4-(5-chloro-7-fluoro-6-(2-hydroxy-1-naphthalenyl)-2,1-benzothiazol-3-yl)-1-piperazinyl)-2-propen-1-one] | 1.78 |  |  | > 100 | 5.03 | 
22 | C=CC(=O)N1CCN(c2nc(=O)n(CC3CC3)c3nc(-c4c(O)cccc4F)c(Cl)cc23)CC1 [Example 38, 6-chloro-1-(cyclopropylmethyl)-7-(2-fluoro-6-hydroxyphenyl)-4-(4-(2-propenoyl)-1-piperazinyl)pyrido[2,3-d]pyrimidin-2(1H)-one] | 0.484 |  |  | > 33.3 | 1.39 | 
23 | C=CC(=O)N1CCN(c2snc3c(F)c(-c4cc(O)cc5ccccc45)c(Cl)cc23)C(C(=O)OC)C1 (racemic) [Example 7-3, methyl 4-acryloyl-1-(5-chloro-7-fluoro-6-(3-hydroxynaphthalen-1-yl)benzo[c]isothiazol-3-yl)piperazine-2-carboxylate] | 1.73 |  |  | > 100 | 5.83 | 
24 | C=CC(=O)N(C)C1CN(c2snc3c(F)c(-c4cc(O)cc5ccccc45)c(Cl)cc23)C1 [Example 5-1, N-(1-(5-Chloro-7-fluoro-6-(3-hydroxy-1-naphthalenyl)-2,1-benzothiazol-3-yl)-3-azetidinyl)-N-methyl-2-propenamide] | 0.875 |  |  | > 100 | 2.86 | 
25 | C=CC(=O)N1CC2(C1)CN(c1snc3c(F)c(-c4cc(O)cc5ccccc45)c(Cl)cc13)C2 [Example 4-1, 1-(6-(5-Chloro-7-fluoro-6-(3-hydroxynaphthalen-1-yl)benzo[c]isothiazol-3-yl)-2,6-diazaspiro[3.3]heptan-2-yl)prop-2-en-1-one] | 0.529 |  |  | > 100 | 2.34 | 
